Source: ChEMBL document CHEMBL1201862, “PubChem BioAssay data set” (2004)
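Following 48 hours of exposure in 96-well plates, responses at five concentrations were used to interpolate endpoints linearly. GI50 marks 50% less growth.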 Calls of active or inactive are those of the source. Cut-off read from the data, not from the text of the source: active = GI50 up to about 1.1 µM and inactive = higher.

Experiments:
Assay in all cases: NCI-60 cell line screen, 48 h
[1] = test system: SF-295
[2] = test system: HOP-62
[3] = test system: UACC-257
[4] = test system: SF-539
[5] = test system: DU-145
[6] = test system: MOLT-4
[7] = test system: T47D
[8] = test system: IGROV-1
[9] = test system: HT-29
[10] = test system: A498
[11] = test system: OVCAR-5
[12] = test system: TK-10
[13] = test system: NCI-H460
[14] = test system: MDA-MB-435
[15] = test system: Hs-578T
[16] = test system: SNB-75
[17] = test system: NCI-H23
[18] = test system: NCI-H226
[19] = test system: A549
[20] = test system: OVCAR-8

SMILES | GI50 [1] | GI50 [2] | GI50 [3] | GI50 [4] | GI50 [5] | GI50 [6] | GI50 [7] | GI50 [8] | GI50 [9] | GI50 [10] | GI50 [11] | GI50 [12] | GI50 [13] | GI50 [14] | GI50 [15] | GI50 [16] | GI50 [17] | GI50 [18] | GI50 [19] | GI50 [20]
O=[N+]([O-])c1ccc2c3ccccc3[s+]([O-])c2c1 (stereo not given) | > 100 µM (inactive) | > 100 µM (inactive) | > 100 µM (inactive) | > 100 µM (inactive) | > 100 µM (inactive) | > 100 µM (inactive) | > 100 µM (inactive) | > 100 µM (inactive) | > 100 µM (inactive) | > 100 µM (inactive) | > 100 µM (inactive) | > 100 µM (inactive) | > 100 µM (inactive) | > 100 µM (inactive) | > 100 µM (inactive) | > 100 µM (inactive) | > 100 µM (inactive) | > 100 µM (inactive) | > 100 µM (inactive) | > 100 µM (inactive)
Cc1nc2c(nc1C)C(=O)c1ccccc1C2=O | 1.48 µM (inactive) | 5.2 µM (inactive) | 1.32 µM (inactive) | 4.6 µM (inactive) | 1.36 µM (inactive) | 11.8 µM (inactive) | 2.99 µM (inactive) | 7.96 µM (inactive) | 4.46 µM (inactive) | 3.74 µM (inactive) | 4.97 µM (inactive) | 20.6 µM (inactive) | 0.923 µM (active) | 0.204 µM (active) | 2.14 µM (inactive) | 2.64 µM (inactive) | 0.5 µM (active) | 4.9 µM (inactive) | 1.25 µM (inactive) | 7.53 µM (inactive)
COc1ccc(C[C@@H]2OC3(C=CC(=O)C=C3)O[C@H]2Cc2ccc(OC)cc2)cc1 | 2.99 µM (inactive) | 1.59 µM (inactive) | 1.46 µM (inactive) | 1.14 µM (inactive) | 1.48 µM (inactive) | 0.173 µM (active) | 0.291 µM (active) | 0.317 µM (active) | 0.766 µM (active) | 5.53 µM (inactive) | 0.832 µM (active) | 0.281 µM (active) | 7.14 µM (inactive) | 1.53 µM (inactive) | 0.971 µM (active) | 1.68 µM (inactive) | 1.37 µM (inactive) | 0.232 µM (active) | 3.1 µM (inactive) | 0.193 µM (active)
CCOC(=O)c1ccc(/N=C/C=C(\Nc2ccc(C(=O)OCC)cc2)c2ccc3ccccc3c2)cc1 | 28.2 µM (inactive) | 30.8 µM (inactive) | 31 µM (inactive) | 20.2 µM (inactive) | 37.3 µM (inactive) | 3.97 µM (inactive) | 13.9 µM (inactive) | 36.2 µM (inactive) | 18.4 µM (inactive) | 95.9 µM (inactive) | 48.4 µM (inactive) | 19.8 µM (inactive) | 25.8 µM (inactive) | 16.2 µM (inactive) | 31.1 µM (inactive) | 28 µM (inactive) | 21 µM (inactive) | 34 µM (inactive) | 34.5 µM (inactive) | 35.4 µM (inactive)
COc1ccc(CNc2nc(NCc3ccc(OC)cc3)nc(N3CCOCC3)n2)cc1 | 2.77 µM (inactive) | 7.11 µM (inactive) | 5.22 µM (inactive) | 4.27 µM (inactive) | 15.1 µM (inactive) | 2.88 µM (inactive) | 9.84 µM (inactive) | 7.91 µM (inactive) | 2.79 µM (inactive) | 11 µM (inactive) | 4.26 µM (inactive) | 3.4 µM (inactive) | 4.23 µM (inactive) | 2.02 µM (inactive) | 4.23 µM (inactive) | 5.51 µM (inactive) | 3.91 µM (inactive) | 19.2 µM (inactive) | 7.13 µM (inactive) | 6.81 µM (inactive)
O=C1CCc2c3c(c4c([nH]c5ccccc54)c2CC1)C(=O)NC3=O | 6.01 µM (inactive) | 12.3 µM (inactive) | 5.05 µM (inactive) | 5.36 µM (inactive) | 9.98 µM (inactive) | 0.774 µM (active) | 1.46 µM (inactive) | 0.893 µM (active) | 3.53 µM (inactive) | 2.22 µM (inactive) | 34.1 µM (inactive) | 10.2 µM (inactive) | 1.58 µM (inactive) | 1.31 µM (inactive) | 2.08 µM (inactive) | 0.0265 µM (active) | 8.93 µM (inactive) | 3.32 µM (inactive) | 7.05 µM (inactive) | 6.87 µM (inactive)
N#Cc1c(-c2ccco2)c2c(n(C3OC(CO)C(O)C(O)C3O)c1=S)CCCC2 (stereo not given) | > 100 µM (inactive) | > 100 µM (inactive) | > 100 µM (inactive) | > 100 µM (inactive) | > 100 µM (inactive) | > 100 µM (inactive) | 85.5 µM (inactive) | > 100 µM (inactive) | > 100 µM (inactive) | > 100 µM (inactive) | > 100 µM (inactive) | > 100 µM (inactive) | > 100 µM (inactive) | > 100 µM (inactive) | > 100 µM (inactive) | 0.0239 µM (active) | > 100 µM (inactive) | > 100 µM (inactive) | > 100 µM (inactive) | > 100 µM (inactive)
N#CN1C2CCC1CC(=O)C2 | > 100 µM (inactive) | > 100 µM (inactive) | > 100 µM (inactive) | > 100 µM (inactive) | > 100 µM (inactive) | > 100 µM (inactive) | > 100 µM (inactive) | > 100 µM (inactive) | > 100 µM (inactive) | > 100 µM (inactive) | > 100 µM (inactive) | > 100 µM (inactive) | > 100 µM (inactive) | > 100 µM (inactive) | > 100 µM (inactive) | > 100 µM (inactive) | > 100 µM (inactive) | > 10 µM (inactive) | > 100 µM (inactive) | > 100 µM (inactive)
CCCOc1ccc(-c2nc(-c3ccc(/N=C/c4ccc(N(CCOS(C)(=O)=O)CCOS(C)(=O)=O)cc4C)cc3)cs2)cc1 | 3.73 µM (inactive) | 8 µM (inactive) | 38 µM (inactive) | 12.1 µM (inactive) | 3.16 µM (inactive) | 5.35 µM (inactive) | 26.9 µM (inactive) | 20 µM (inactive) | 17.9 µM (inactive) | 7.5 µM (inactive) | 31.9 µM (inactive) | 18.8 µM (inactive) | 0.286 µM (active) | 33.8 µM (inactive) | 29.3 µM (inactive) | 2.78 µM (inactive) | 10.1 µM (inactive) | 22.9 µM (inactive) | 4.59 µM (inactive) | 25.5 µM (inactive)
COc1ccc([N+](=O)[O-])c2c(NCCCN(C)C)c3ccccc3nc12 | 0.107 µM (active) | 0.0998 µM (active) | 0.23 µM (active) | 0.308 µM (active) | 0.126 µM (active) | 0.0326 µM (active) | 0.2 µM (active) | 0.05 µM (active) | 0.07 µM (active) | 0.0204 µM (active) | 0.272 µM (active) | 0.399 µM (active) | 0.0355 µM (active) | 0.306 µM (active) | 0.682 µM (active) | 0.222 µM (active) | 0.0625 µM (active) | 0.225 µM (active) | 0.0843 µM (active) | 0.288 µM (active)
Cc1cccc(/C=N/NC(=S)NC(C)(C)C)n1 | > 100 µM (inactive) | 98.9 µM (inactive) | > 100 µM (inactive) | > 100 µM (inactive) | 66.8 µM (inactive) | 4.72 µM (inactive) | 6.24 µM (inactive) | 66.7 µM (inactive) | 3.12 µM (inactive) | > 100 µM (inactive) | 95.1 µM (inactive) | 75.2 µM (inactive) | 85.1 µM (inactive) | > 100 µM (inactive) | > 100 µM (inactive) | > 100 µM (inactive) | > 100 µM (inactive) | 52.4 µM (inactive) | > 100 µM (inactive) | 50.8 µM (inactive)
CC(=O)N(C(=O)CC(=O)NNCc1ccccc1Cl)c1ccc(Cl)cc1 | > 10 µM (inactive) | > 10 µM (inactive) | > 10 µM (inactive) | > 10 µM (inactive) | > 10 µM (inactive) | > 10 µM (inactive) | 8.11 µM (inactive) | > 10 µM (inactive) | > 10 µM (inactive) | > 10 µM (inactive) | > 10 µM (inactive) | > 10 µM (inactive) | > 10 µM (inactive) | > 10 µM (inactive) | > 10 µM (inactive) | > 10 µM (inactive) | > 10 µM (inactive) | > 10 µM (inactive) | > 10 µM (inactive) | > 10 µM (inactive)
CCOC(=O)/C(=C\c1c(C)[nH]c2ccccc12)P(=O)(OCC)OCC | > 100 µM (inactive) | > 100 µM (inactive) | > 100 µM (inactive) | > 100 µM (inactive) | > 100 µM (inactive) | > 100 µM (inactive) | > 100 µM (inactive) | > 100 µM (inactive) | > 100 µM (inactive) | > 100 µM (inactive) | > 100 µM (inactive) | > 100 µM (inactive) | > 100 µM (inactive) | > 100 µM (inactive) | > 100 µM (inactive) | > 100 µM (inactive) | > 100 µM (inactive) | > 100 µM (inactive) | > 100 µM (inactive) | > 100 µM (inactive)
CC(=O)OC(C)(C)/C=C/C(=O)[C@](C)(O)[C@H]1[C@H](O)C[C@@]2(C)[C@@H]3CC=C4[C@@H](C[C@H](O)C(=O)C4(C)C)[C@]3(C)C(=O)C[C@]12C | < 0.01 µM (active) | < 0.0111 µM (active) | < 0.01 µM (active) | < 0.01 µM (active) | < 0.01 µM (active) | 0.167 µM (active) | 0.0362 µM (active) | < 0.01 µM (active) | < 0.01 µM (active) | < 0.01 µM (active) | < 0.0246 µM (active) | < 0.01 µM (active) | < 0.01 µM (active) | < 0.01 µM (active) | < 0.01 µM (active) | < 0.01 µM (active) | 0.0873 µM (active) | < 0.01 µM (active) | < 0.01 µM (active) | 0.064 µM (active)
